Values belong to the compound of their own block, whether it stands above or below them.
Experiments:
[1] = test system: rat primary cortical neurons; assay: Primary cortical neuron spontaneous calcium oscillation (FLIPR, fluo-4 AM); format: cell-based; conditions: primary neuronal spontaneous calcium oscillations
Description: (§1) To measure primary cortical neuron spontaneous calcium oscillation, rat primary cortical neurons were prepared from Sprague-Dawley rat embryos (E19). Cells were plated 25,000 cells/well onto 384 well poly-D-lysine coated FLIPR plates (Greiner Bio-One) in 25 μl/well Neurobasal media containing B27 supplement and 2 mM glutamine (day 1 in vitro, DIV1). Cells were grown for 11 days at 37° C. in 5% CO2 and fed with 25 μl of additional media on day 4 in vitro (“DIV04”) and day 8 in vitro (“DIV08”) for use on day 11 in vitro (“DIV11”). […] After 1 hr 20 μl of room temperature assay buffer was added and the cells were allowed to equilibrate to room temperature for 10 additional minutes and placed in the fluorescent imaging plate reader (FLIPR). Baseline signal (measurement of intracellular calcium) was read for 100 seconds (1 reading/second) before the addition of anti-sense oligomers. […] FLIPR signal was read for an additional 200 seconds (1 reading/second) after the addition of oligomer. A second 5 minute post addition plate read (300 one second points) on the FLIPR was conducted to allow for additional data capture. Raw data from the 5 minute read was exported and, using Excel, spike amplitude and frequency was calculated. Calculations were performed by measuring the average FLIPR signal over the 300 second read for control (non-treated) wells. […]

[2] = test system: spontaneous neuronal activity; assay: Electrophysiologic spontaneous neuronal activity in vitro (data not shown); format: cell-based
AMPA receptor = AMPA receptor mediated spontaneous calcium oscillations in primary neurons; format: cell-based, rat; conditions: 25 μM oligomer; presence or absence of 1 mM MgCl2 representing 100% control
Description: as §1

[3] = test system: central nervous system (CNS) network activity; assay: CNS network activity in vivo (data not shown)
NMDA receptor = NMDA receptor mediated spontaneous calcium oscillations in primary neurons; format: cell-based, rat; conditions: 25 μM oligomer; presence or absence of 1 mM MgCl2 representing 100% control
Description: as §1

Compound: 6-Cyano-7-nitroquinoxaline-2,3-dione [CNQX]
reduction of calcium oscillations (total AMPA response in the assay) ([1]; CNQX 3 μM): 20%

reduction of calcium oscillations when NMDA receptor function was blocked ([1]; 1 mM MgCl2): about 80%
Compound: [Cl-].[Cl-].[Mg+2] [MgCl2]

Compound: TGTgatgcaggaGTT (antisense TGTGATGCAGGAGTT; listed as DNA, chemistry not given here) [ASO-00007]
impact on electrophysiologic spontaneous neuronal activity in vitro [2]: negatively impact | inhibition of AMPA receptor mediated calcium oscillations (AMPA receptor): inhibited AMPA receptor | impact on central nervous system (CNS) network activity in vivo [3]: negatively impact | inhibition of NMDA receptor mediated calcium oscillations (NMDA receptor): not NMDA receptor

From patent US11761951B2, “Methods of selecting therapeutic molecules” (Bristol-Myers Squibb Company, priority 2015, dated 2023)
